Measured values published in patent US7232805B2, “Cobalamin conjugates for anti-tumor therapy” (Inflabloc Pharmaceuticals, Inc., priority 2003, dated 2007).

What was measured:
[1] = systemic toxicity / MTD of free doxorubicin versus conjugate on a molar basis (separate study); format: in vivo, mice
[2] = system: MX-1 human breast carcinoma xenograft; assay: tumor growth delay, MX-1 xenograft, single-cycle dosing (Example 3); settings: 3 mg/kg/day x 5 days intravenous
Procedure: Test articles were administered on the day of pair matching, Day 1.
The upper limit of acceptability is 20% weight loss.

[3] = system: MX-1 human breast carcinoma xenograft; assay: tumor growth delay, MX-1 xenograft, two-cycle dosing (Example 11); settings: 2-cycle
Procedure: The following procedure was used to investigate the tumor growth delay effects of the conjugate, particularly for the treatment of MX-1 human breast carcinoma xenograft in athymic mice using a two-cycle dosing regimen. Female nude Harlan mice are implanted subcutaneously with 1 mm^3 MX 1 solid tumor fragments in the flank. During the pre-dose phase of implantation and growth, tumors are initially monitored twice weekly, and then daily as the neoplasms approach the desired size of 80-120 mg. When the majority of tumors reached the targeted weight range (80-120 mg), mice are pair-matched into 5 treatment groups of 10 mice each. For purposes of this illustrationon the effect of 2-cycles of treatment, data from 3 groups are shown: no treatment, 3 mg/kg/day (days 1-5, 21-25) intravenous Doxorubicin and 24 mg/kg/day (days 1-5, 21-25) intravenous bioconjugate. Test article administration began on this day, referred to as Day 1. The tumor growth delay endpoint is reached when the tumor on the mouse reaches 1.5 gm weight estimated by the formula: Tumor weight (mg)=w^2×l/2×1 mg/mm^3, where w=width (mm) and l=length (mm) of the tumor. The median time to endpoint is calculated for each treatment group.

COc1cccc2c1C(=O)c1c(O)c3c(c(O)c1C2=O)C[C@@](O)(C(=O)CO)C[C@@H]3O[C@H]1C[C@H](N)[C@H](O)[C@H](C)O1 [Doxorubicin, doxorubicin, reference compound]
lethality at the same high molar dose ([1]; free doxorubicin at the same high molar dose as the conjugate): mice were killed by the free doxorubicin | MTD lower than for the conjugate on a molar basis ([1]; separate study): at least 2.3 times | median delay in tumor growth (median time to endpoint, tumor 1.5 gm) [2]: 39.5 days | treatment or nontreatment related deaths [2]: no other treatment or nontreatment related deaths | long-term, tumor-free survivors ([2]; 10 mice): no long-term, tumor-free survivors | partial or complete tumor regressions ([2]; 10 mice): no partial or complete tumor regressions | time to endpoint longer than control mice ([3]; 3 mg/kg/day (days 1-5, 21-25) intravenous): at least 44 days | treatment or nontreatment related deaths ([3]; 3 mg/kg/day intravenous): no treatment or nontreatment related deaths | long-term, tumor-free survivors ([3]; 3 mg/kg/day intravenous, at 71 days): significant percentage
